The values that follow are results of earlier work, collected in PMC5749684, “Tetrahydrocarbazoles are a novel class of potent P-type ATPase inhibitors with antifungal activity” (PLoS ONE, 2018).

The series deals with Na^+,K^+-ATPase. More on the design: method as in PMID 19289472. The settings on record: cited from earlier work.

In the case of `CC(=O)C1=C(O)[C@@H]2[C@H]3c4c[nH]c5cccc(c45)C[C@H]3C(C)(C)N2C1=O` [CPA, cyclopiazonic acid], the “Activity against Na^+,K^+-ATPase (in words)” value is “inactivity”.
